Tests used:
[1] = tested on: glycoprotein-IIβ (GPIIβ or GPIIB); test: RT-PCR gene expression in hMSCs: GPIIB; type: cell-based, Human; conditions: hMSC, growth media, melatonin 3 × 10^−7 molar, dexamethasone 1 × 10^−7 molar
Experimental: (§1) Human mesenchymal stem cells (hMSCs) were purchased through LONZA BIOSCIENCES. These cells were seeded at a density of approximately 7500 cells/cm^2 upon receipt. Since hMSCs spontaneously differentiate into various cell types after 8 to 9 passages, cells passaged 3 to 4 times were used for each of the examples disclosed herein. Supplemented DMEM media was refreshed every third day during culture.
(§2) Cultures of hMSCs were passaged in growth medium until a sufficient number of flasks for differentiation studies were obtained. Growth medium was removed and replaced with a variety of experimental solutions as described more fully hereinbelow. For qualitative alkaline phosphatase assays described below, the cells were seeded on collagen coated cover slips (BIOCOAT®) at 2000 cells/cm^2. A volume of 3 ml of media was placed into the wells for 5 and 15 days according to the procedures below. For the reverse-transcriptase polymerase chain reaction studies described below, the cells were cultured in their respective media for 5, 10, or 20 days.
(§3) Cells were plated and grown using the general techniques described in Examples 1 and 2. The expression of numerous genes was assessed for cells at Days 5, 10, and 20. Cells were grown in the media as detailed in Tables 1 and 2 below. The expression of the indicated genes was assessed and reported as x-fold increases over the level of normalized gene expression to glyceraldehyde-3-phosphate dehydrogenase (GAPDH) in cells cultured in grown medium (Table 1).
The genes of interest were selected based upon their appearance in platelets and mesenchymal stem cells differentiating into osteoblasts. Glyceraldehyde-3 phosphate dehydrogenase (GAPDH) is a well characterized housekeeper gene for differentiating hMSCs. The primers used were: forward: 5′ […] (SEQ ID No. 1), reverse: […] (SEQ ID No. 2). The gene for bone sialoprotein (BSP) was chosen because it is expressed during the differentiation of hMSCs, prior to the mineralization phase, but represents a mature functioning osteoblast. The primers were forward: 5′ […] (SEQ ID No. 3), reverse: […] (SEQ ID No. 4). The gene BGLAP (osteocalcin) was chosen because it is definitive marker for functioning osteoblasts at 21 days. The primers were: forward: 5′ […] (SEQ ID No. 5), reverse: […] (SEQ ID No. 6). The gene for glycoprotein-IIβ (GPIIβ or GPIIB) was chosen because it is expressed in developing megakaryocytes and found in platelets. The primers were: forward: […] (SEQ ID No. 7), reverse: […] (SEQ ID No. 8).
The reaction protocol was completed in a BIO-RAD CHROMO4 Real Time Detection System using the iScript One-Step RT-PCR Kit (BIO-RAD, Hercules, Calif.). Each reaction mixture contained 100 nM of RNA. […] The data was collected and analyzed using the MC OPTICON software.

Runx2 = test: RT-PCR gene expression in hMSCs: Runx2; type: cell-based, Human; conditions: hMSC, growth media, melatonin 3 × 10^−7 molar, dexamethasone 1 × 10^−7 molar
Experimental: as §1, §2, §3
The reaction protocol was completed in a BIO-RAD CHROMO4 Real Time Detection System using the iScript One-Step RT-PCR Kit (BIO-RAD, Hercules, Calif.). Each reaction mixture contained […] of RNA. The 50 μL reaction mixture was placed in the thermal cycler and incubated at 55° C. for 10 minutes, 5 minutes at 95° C. for cDNA synthesis and reverse transcriptase inactivation. The PCR cycling was completed after 45 cycles; 10 seconds at 95° C., 30 seconds at 57° C. A melt curve analysis was completed; 1 minute at 95° C., 1 minute at 55° C. and 10 seconds at 55° C. for 80 cycles, increasing 0.5° C. each cycle. The data was collected and analyzed using the MC OPTICON software.
For the second PCR run, the gene Runx2 was included instead of BSP. Runx2 is a transcription factor required for all remaining steps of osteoblastic differentiation to occur. Accordingly, it is a specific early marker of osteoblastic differentiation.

BGLAP (osteocalcin) = test: RT-PCR gene expression in hMSCs: osteocalcin; conditions: hMSC, growth media, melatonin 3 × 10^−7 molar, dexamethasone 1 × 10^−7 molar
[2] = tested on: alkaline phosphatase activity in hMSC cultures; test: Quantitative alkaline phosphatase assay in hMSC cultures; type: cell-based, Human; conditions: differentiation medium, dexamethasone 1×10^−7 M, melatonin 3×10^−7 M, 3.5% (v/v) PRP
Experimental: Human mesenchymal stem cells (hMSCs) were purchased through LONZA BIOSCIENCES. These cells were seeded at a density of approximately 7500 cells/cm^2 upon receipt. Since hMSCs spontaneously differentiate into various cell types after 8 to 9 passages, cells passaged 3 to 4 times were used for each of the examples disclosed herein. Supplemented DMEM media was refreshed every third day during culture. Cultures of hMSCs were passaged in growth medium until a sufficient number of flasks for differentiation studies were obtained. Growth medium was removed and replaced with a variety of experimental solutions as described more fully hereinbelow. For qualitative alkaline phosphatase assays described below, the cells were seeded on collagen coated cover slips (BIOCOAT®) at 2000 cells/cm^2. A volume of 3 ml of media was placed into the wells for 5 and 15 days according to the procedures below. […] At 5 days and 15 days, cultures in each condition were quantitatively assessed for alkaline phosphatase activity (μg of alkaline phosphatase per mL of solution). Quantitative alkaline phosphatase assays (ANASPEC, California) were completed according to manufacturers' instructions. […] The plate was incubated at room temperature for 30 minutes and the developing color was measured immediately using a BIO-TEK KINETIC MICROPLATE READER Model E[…] […]

[3] = tested on: human periodontal ligament cells; conditions: media supplemented; Hayami et al., Bone (2007); cited from earlier work

Row | SMILES | GPIIB mRNA expression, x-fold increase compared to untreated growth control ([1]; Day 10, n = 3) [x-fold] | GPIIB mRNA expression, x-fold increase compared to untreated growth control ([1]; Day 20, n = 3) [x-fold] | Runx2 mRNA expression, x-fold increase compared to untreated growth control (Runx2; Day 5, n = 3) [x-fold] | Runx2 mRNA expression, x-fold increase compared to untreated growth control (Runx2; Day 10, n = 3) [x-fold] | Runx2 mRNA expression, x-fold increase compared to untreated growth control (Runx2; Day 20, n = 3) [x-fold] | Osteocalcin mRNA expression, x-fold increase compared to untreated growth control (BGLAP (osteocalcin); Day 5, n = 3) [x-fold] | Osteocalcin mRNA expression, x-fold increase compared to untreated growth control (BGLAP (osteocalcin); Day 10, n = 3) [x-fold] | Osteocalcin mRNA expression, x-fold increase compared to untreated growth control (BGLAP (osteocalcin); Day 20, n = 3) [x-fold] | alkaline phosphatase activity ([2]; Day 5, FIG. 1B) | alkaline phosphatase activity ([2]; Day 15, FIG. 1B) | Osteocalcin mRNA expression, x-fold increase compared to untreated growth control (BGLAP (osteocalcin); Day 5, n = 3, listed as melatonin) | osteoblast-specific cell markers in culture [3]
1 | C[C@@H]1C[C@H]2[C@@H]3CCC4=CC(=O)C=C[C@]4(C)[C@@]3(F)[C@@H](O)C[C@]2(C)[C@@]1(O)C(=O)CO [Dexamethasone, dexamethasone] | 11.59 | 4993.43 | 138.04 | 4.16 | 15.29 | 70.22 | 142.21 | 998.82 |  |  |  | 
2 | COc1ccc2[nH]cc(CCNC(C)=O)c2c1 [Melatonin, melatonin] | 968.86 | 2432.97 | 269.75 | 14.39 | 129.83 | 260.38 | 1269.3 | 1295.79 | showed an effect | elevated alkaline phosphatase activity | high levels | 
3 | C[C@@H]1C[C@H]2[C@@H]3CCC4=CC(=O)C=C[C@]4(C)[C@@]3(F)[C@@H](O)C[C@]2(C)[C@@]1(O)C(=O)COP(=O)(O)O [dexamethasone sodium phosphate solution, Dexamethasone sodium phosphate] |  |  |  |  |  |  |  |  |  |  |  | increased osteoblast-specific cell markers

Reference: patent US20120195938A1, “FORMULATIONS AND METHODS FOR RECOVERY FROM DENTAL SURGERY” (priority 2007, published 2012)
